Measurements reported in patent EP0026410A1, “Combinations of active ingredients, their preparation and use, as well as pharmaceutical preparations” (F. HOFFMANN-LA ROCHE & CO. Aktiengesellschaft, priority 1979, dated 1981).
Converted amounts (≈) assume the structure as drawn. Read-outs that look alike come from different tables or passages of the source.

Legend:
Pseudomonas aeruginosa [1] = test: In vitro M.I.C. of Nocardicin A, peptide and their mixtures against Pseudomonas aeruginosa strains; assay type: cell-based
Serratia marcescens = test: In vitro M.I.C. of Nocardicin A, peptide and mixtures against Serratia marcescens; assay type: cell-based
Proteus vulgaris = test: In vitro M.I.C. of Nocardicin A, peptide and mixtures against Proteus vulgaris; assay type: cell-based
P. rettgeri = test: In vitro M.I.C. of Nocardicin A, peptide and mixtures against Proteus species; assay type: cell-based; conditions: Providencia rettgeri; P. rettgeri Stamm 503010; substance alone
Ps. aeruginosa = test: In vivo activity in Pseudomonas septicaemia of mice; design: species or system Mäusen; conditions: sc, 5 h
Description: Die in vivo Aktivitäten der erfindungsgemässen Kombinationen wurden mittels Pseudomonas-Septikämien an Mäusen getestet, wobei die Verabreichung eine Stunde, 3 Stunden -und 5 Stunden nach intraperitonealer Infektion erfolgte. Die Ergebnisse, die mit (1R)-1-(L-Norvalylamino)-ethylphosphonsäure und Nocardicin A erreicht wurden, sind in der folgenden Tabelle VI zusammengefasst.

P. morganii = test: In vitro M.I.C. of Nocardicin A, peptide and mixtures against Proteus species; assay type: cell-based; conditions: Morganella morganii; P. morganii Stamm 501041; substance alone
Pseudomonas aeruginosa [2] = test: Microtiter checkerboard method, M.I.C. after 18 h incubation; assay type: cell-based; conditions: for MIC: Pseudomonas aeruginosa
Description: Die in vitro Aktivität der erfindungsgemässen Kombinationen kann auch nach der Mikrotiter-Schachbrett-Methode gezeigt werden. Bei dieser Methode werden Filter-sterilisierte Grundlösungen von Verbindungen I und einem Nocardicin-Antibiotikum hergestellt, die 4,8mal so konzentriert sind wie die zu testenden Lösungen. Aliquote Teile des Kulturmediums (50 ul)wurden in alle 12 (1-12) x 8 (A-H) Löcher der Mikrotiter-Platte gegeben, mit Ausnahme des Loches 12H. Jeweils 50 µl der Peptid-Lösung wurden dann in jedes Loch der zwölften Reihe gegeben und 100 µl in das Loch 12H. Die peptidhaltigen Lösungen wurden dann innerhalb der Reihen A-H dadurch verdünnt, dass man jeweils 50 µl aus der Reihe 12 in die Reihe 11 übertrug, gut vermischte, und wieder jeweils 50 µl in die Reihe 10 übertrug und dieses Prozedere bis zur Reihe 2 wiederholte, so dass die Reihe 1 ausgelassen wurde. Dann wurden je 50 µl einer Lösung eines Nocardicin-Antibiotikums in jedes Loch der Reihe H gegeben und ebenfalls in der vorstehend beschriebenen Weise verdünnt innerhalb der Reihen 1-12, wobei das letzte Loch in jeder Reihe wiederum ausgelassen wurde. Nachdem die Volumina überall durch Zusatz von 50 ul Nährflüssigkeit auf 100 µl gebracht wurden, wurden jeweils 20 µl einer 1/1000 Verdünnung einer über Nacht angesetzten Kultur eines Testorganismus zugesetzt. Durch Schütteln wurde für eine gleichmässige Verteilung gesorgt, woraufhin die Platten mit Klebstreifen verschlossen wurden. Die minimalen Hemmkonzentrationen wurden als diejenigen minimalen Konzentrationen bestimmt, die nach 18-stündiger Inkubation der Kulturen eine sichtbare Trübung verhinderten. Die Ergebnisse mit (1R)-1-(L-Norvalylamino)-ethylphosphonsäure und Nocardicin D sind in der Tabelle V zusammengestellt.

P. mirabilis = test: In vitro M.I.C. of Nocardicin A, peptide and mixtures against Proteus species; assay type: cell-based
[3] = Tabelle IV, Ps. aeruginosa (strain not named), substance alone
[4] = Tabelle IV, S. marcescens (strain not named), substance alone
[5] = Tabelle IV, P. vulgaris (strain not named), substance alone
[6] = NCTC2099, Stamm NCTC 2099, substance alone
[7] = NCTC2100, Stamm NCTC 2100, substance alone
[8] = Stamm NC1B 8295, substance alone
[9] = ATCC14756, S. marcescens Stamm ATCC 14756, substance alone
[10] = S. marcescens Stamm 542007, substance alone
[11] = S. marcescens Stamm 542010, substance alone
[12] = S. marcescens Stamm 542012, substance alone
[13] = S. marcescens Stamm 542017, substance alone
[14] = P. vulgaris Stamm 505030, substance alone
[15] = P. vulgaris Stamm 505031, substance alone
[16] = P. mirabilis Stamm 502010, substance alone
[17] = P. mirabilis Stamm 502012, substance alone
[18] = P. mirabilis Stamm 502015, substance alone
[19] = P. mirabilis Stamm 502038, substance alone

CCC[C@H](N)C(=O)NCP(=O)(O)O [1-(L-Norvalylamino)-methylphosphonsäure]
MIC (Pseudomonas aeruginosa [1]; [3]): > 128 µg/mL
MIC (Serratia marcescens; [4]): 4 µg/mL (≈ 19 µM)
MIC (Proteus vulgaris; [5]): 45.2 µg/mL (≈ 215 µM)

CCC[C@H](N)C(=O)N[C@@H](C)P(=O)(O)O [(1R)-1-(L-Norvalylamino)-ethylphosphonsäure]
MIC (Pseudomonas aeruginosa [1]; [6]): 256 µg/mL (≈ 1140 µM)
MIC (Pseudomonas aeruginosa [1]; [7]): > 256 µg/mL
MIC (Pseudomonas aeruginosa [1]; Stamm 511004, substance alone): > 256 µg/mL
MIC (Pseudomonas aeruginosa [1]; Stamm 511005, substance alone): 4 µg/mL (≈ 17.8 µM)
MIC (Pseudomonas aeruginosa [1]; Stamm 511007, substance alone): > 256 µg/mL
MIC (Pseudomonas aeruginosa [1]; Stamm 511012, substance alone): > 256 µg/mL
MIC (Pseudomonas aeruginosa [1]; Stamm 511015, substance alone): 128 µg/mL (≈ 571 µM)
MIC (Pseudomonas aeruginosa [1]; Stamm 511016, substance alone): 32 µg/mL (≈ 143 µM)
MIC (Pseudomonas aeruginosa [1]; Stamm 511019, substance alone): > 256 µg/mL
MIC (Pseudomonas aeruginosa [1]; Stamm 511026, substance alone): > 256 µg/mL
MIC (Pseudomonas aeruginosa [1]; Stamm 511027, substance alone): 45 µg/mL (≈ 201 µM)
MIC (Pseudomonas aeruginosa [1]; Stamm 511028, substance alone): > 256 µg/mL
MIC (Pseudomonas aeruginosa [1]; Stamm 511029, substance alone): > 256 µg/mL
MIC (Pseudomonas aeruginosa [1]; Stamm 511030, substance alone): 256 µg/mL (≈ 1140 µM)
MIC (Pseudomonas aeruginosa [1]; Stamm 511032, substance alone): 256 µg/mL (≈ 1140 µM)
MIC (Pseudomonas aeruginosa [1]; Stamm 511033, substance alone): 256 µg/mL (≈ 1140 µM)
MIC (Pseudomonas aeruginosa [1]; Stamm 511036, substance alone): 256 µg/mL (≈ 1140 µM)
MIC (Pseudomonas aeruginosa [1]; Stamm 511038, substance alone): 256 µg/mL (≈ 1140 µM)
MIC (Pseudomonas aeruginosa [1]; Stamm 511041, substance alone): 256 µg/mL (≈ 1140 µM)
MIC (Pseudomonas aeruginosa [1]; [8]): 64 µg/mL (≈ 285 µM)
MIC (P. rettgeri): 4 µg/mL (≈ 17.8 µM)
ED50 (Ps. aeruginosa; read-out: CD50, Ps. aeruginosa 143724, s.c. 3 x (1, 3, 5 h after i.p. infection), substance alone): > 200 mg/kg
ED50 (Ps. aeruginosa; read-out: CD50, Ps. aeruginosa 143811, s.c. 3 x (1, 3, 5 h after i.p. infection), substance alone): > 200 mg/kg
ED50 (Ps. aeruginosa; read-out: CD50, Ps. aeruginosa BA, s.c. 3 x (1, 3, 5 h after i.p. infection), substance alone): > 200 mg/kg
ED50 (Ps. aeruginosa; read-out: CD50, Ps. aeruginosa M 7801, s.c. 3 x (1, 3, 5 h after i.p. infection), substance alone): 135 mg/kg
MIC (Serratia marcescens; [9]): 1 µg/mL (≈ 4.46 µM)
MIC (Serratia marcescens; [10]): 1 µg/mL (≈ 4.46 µM)
MIC (Serratia marcescens; [11]): 1 µg/mL (≈ 4.46 µM)
MIC (Serratia marcescens; [12]): 1 µg/mL (≈ 4.46 µM)
MIC (Serratia marcescens; [13]): 1 µg/mL (≈ 4.46 µM)
MIC (P. morganii): 64 µg/mL (≈ 285 µM)
MIC (Proteus vulgaris; [14]): 5.7 µg/mL (≈ 25.4 µM)
MIC (Proteus vulgaris; [15]): 8 µg/mL (≈ 35.7 µM)
MIC (Pseudomonas aeruginosa [2]; Stamm 511019, substance alone): > 256 µg/mL
MIC (Pseudomonas aeruginosa [2]; Stamm 511027, substance alone): 64 µg/mL
MIC (Pseudomonas aeruginosa [2]; Stamm 511030, substance alone): 256 µg/mL
MIC (P. mirabilis; [16]): 22.6 µg/mL (≈ 101 µM)
MIC (P. mirabilis; [17]): 22.6 µg/mL (≈ 101 µM)
MIC (P. mirabilis; [18]): 22.6 µg/mL (≈ 101 µM)
MIC (P. mirabilis; [19]): 22.6 µg/mL (≈ 101 µM)

N[C@H](CCOc1ccc(/C(=N/O)C(=O)N[C@H]2CN([C@@H](C(=O)O)c3ccc(O)cc3)C2=O)cc1)C(=O)O [Nocardicin A]
MIC (Pseudomonas aeruginosa [1]; [6]): 16 µg/mL (≈ 32 µM)
MIC (Pseudomonas aeruginosa [1]; [7]): 32 µg/mL (≈ 63.9 µM)
MIC (Pseudomonas aeruginosa [1]; Stamm 511004, substance alone): 32 µg/mL (≈ 63.9 µM)
MIC (Pseudomonas aeruginosa [1]; Stamm 511005, substance alone): 4 µg/mL (≈ 7.99 µM)
MIC (Pseudomonas aeruginosa [1]; Stamm 511007, substance alone): 16 µg/mL (≈ 32 µM)
MIC (Pseudomonas aeruginosa [1]; Stamm 511012, substance alone): 32 µg/mL (≈ 63.9 µM)
MIC (Pseudomonas aeruginosa [1]; Stamm 511015, substance alone): 16 µg/mL (≈ 32 µM)
MIC (Pseudomonas aeruginosa [1]; Stamm 511016, substance alone): 64 µg/mL (≈ 128 µM)
MIC (Pseudomonas aeruginosa [1]; Stamm 511019, substance alone): 64 µg/mL (≈ 128 µM)
MIC (Pseudomonas aeruginosa [1]; Stamm 511026, substance alone): 181 µg/mL (≈ 362 µM)
MIC (Pseudomonas aeruginosa [1]; Stamm 511027, substance alone): 8 µg/mL (≈ 16 µM)
MIC (Pseudomonas aeruginosa [1]; Stamm 511028, substance alone): 16 µg/mL (≈ 32 µM)
MIC (Pseudomonas aeruginosa [1]; Stamm 511029, substance alone): 256 µg/mL (≈ 512 µM)
MIC (Pseudomonas aeruginosa [1]; Stamm 511030, substance alone): 16 µg/mL (≈ 32 µM)
MIC (Pseudomonas aeruginosa [1]; Stamm 511032, substance alone): 32 µg/mL (≈ 63.9 µM)
MIC (Pseudomonas aeruginosa [1]; Stamm 511033, substance alone): 32 µg/mL (≈ 63.9 µM)
MIC (Pseudomonas aeruginosa [1]; Stamm 511036, substance alone): 16 µg/mL (≈ 32 µM)
MIC (Pseudomonas aeruginosa [1]; Stamm 511038, substance alone): 256 µg/mL (≈ 512 µM)
MIC (Pseudomonas aeruginosa [1]; Stamm 511041, substance alone): 32 µg/mL (≈ 63.9 µM)
MIC (Pseudomonas aeruginosa [1]; [8]): > 256 µg/mL
MIC (Pseudomonas aeruginosa [1]; [3]): 8 µg/mL (≈ 16 µM)
MIC (P. rettgeri): 8 µg/mL (≈ 16 µM)
ED50 (Ps. aeruginosa; Ps. aeruginosa 143724, s.c. 3 x (1, 3, 5 h after i.p. infection), substance alone, read-out: CD50 (the source's name)): > 50 mg/kg
ED50 (Ps. aeruginosa; Ps. aeruginosa 143811, s.c. 3 x (1, 3, 5 h after i.p. infection), substance alone, read-out: CD50 (the source's name)): > 50 mg/kg
ED50 (Ps. aeruginosa; Ps. aeruginosa BA, s.c. 3 x (1, 3, 5 h after i.p. infection), substance alone, read-out: CD50 (the source's name)): 43 mg/kg
ED50 (Ps. aeruginosa; Ps. aeruginosa M 7801, s.c. 3 x (1, 3, 5 h after i.p. infection), substance alone, read-out: CD50 (the source's name)): > 50 mg/kg
MIC (Serratia marcescens; [9]): 8 µg/mL (≈ 16 µM)
MIC (Serratia marcescens; [10]): 11.3 µg/mL (≈ 22.6 µM)
MIC (Serratia marcescens; [11]): 11.3 µg/mL (≈ 22.6 µM)
MIC (Serratia marcescens; [12]): 8 µg/mL (≈ 16 µM)
MIC (Serratia marcescens; [13]): 16 µg/mL (≈ 32 µM)
MIC (Serratia marcescens; [4]): 16 µg/mL (≈ 32 µM)
MIC (P. morganii): 8 µg/mL (≈ 16 µM)
MIC (Proteus vulgaris; [14]): 4 µg/mL (≈ 7.99 µM)
MIC (Proteus vulgaris; [15]): 32 µg/mL (≈ 63.9 µM)
MIC (Proteus vulgaris; [5]): 64 µg/mL (≈ 128 µM)
MIC (P. mirabilis; [16]): 8 µg/mL (≈ 16 µM)
MIC (P. mirabilis; [17]): 8 µg/mL (≈ 16 µM)
MIC (P. mirabilis; [18]): 4 µg/mL (≈ 7.99 µM)
MIC (P. mirabilis; [19]): 32 µg/mL (≈ 63.9 µM)

N[C@H](CCOc1ccc(C(=O)C(=O)N[C@H]2CN([C@@H](C(=O)O)c3ccc(O)cc3)C2=O)cc1)C(=O)O [Nocardicin D]
M.I.C. (Pseudomonas aeruginosa [2]; Stamm 511019, substance alone): >512 µg/mL
M.I.C. (Pseudomonas aeruginosa [2]; Stamm 511027, substance alone): 512 µg/mL
M.I.C. (Pseudomonas aeruginosa [2]; Stamm 511030, substance alone): 128 µg/mL
